According to US20260232684A1, “FLT3 INHIBITORS AND METHODS OF USING THE SAME” (BIOVENTURES, LLC, priority 2023, published 2026):

Columns and labels:
[1] = test system: Molm14 cells (FLT3-ITD-expressing); assay: Cell viability assay (CellTiter GLO), Molm14; format: cell-based, human; conditions: Molm14, 48 hours
Procedure: (§1) FIG. 1. […] Cells were treated with inhibitor at increasing log doses (0.1 nM-10 μM) for 48 hours. Cell viability was analyzed through CellTiter GLO. […] Cells were exposed to increasing amounts of each drug for 2 hours. GAPDH1 represents loading control for phospho-ERK and ERK blots. GAPDH2 represents loading control for phosphor-STAT5, STAT5, phospho-S6 and S6. Each experiment was completed in triplicate. Representative images are shown.
(§2) FIG. 5. […] Cells were dosed with inhibitor at increasing log doses (0.1 nM-10 μM) for 48 hours. Cell viability was analyzed through CellTiter GLO.
(§3) MV-4-11 and parental Molm-14 cells were a gift from Dr. Scott Kogan (University of California, San Francisco). HL60 and K562 cell lines were obtained from Charles Sawyers. […] Stable Ba/F3 lines were generated by retroviral infection as previously described (5). All cell lines were tested to be mycoplasma free and human cell lines were authenticated through STR profiling completed at the University of California, Berkeley.
(§4) Each triplicate was either dosed with drug or DMSO vehicle control. Drug dosing was completed at log doses ranging from 0.1 nM-10 μM. Cell viability was assessed after 48 hours using CellTiter GLO (Promega). Viability values were normalized to the vehicle control average. Numerical IC50 values were calculated in GraphPad Prism 7.

Molm14 F691L cells = assay: Cell viability assay (CellTiter GLO), Molm14 F691L; format: cell-based, human; conditions: 48 hours
Procedure: as §1, §2, §3, §4

[2] = test system: TKI-naïve primary AML patient samples expressing FLT3-ITD; assay: Short-term liquid culture growth inhibition of primary AML samples; format: cell-based, human; conditions: 100 nM, up to 7 days, CellTiter GLO, five patient samples
Procedure: FIG. 11. Activity of compounds against primary FLT3-ITD AML samples in short term liquid culture assays. […] Plates were incubated with drug for 0, 1, 2, 3, 5 or 7 days. FLT3 mutation is noted for each patient in parentheses. Cell viability was analyzed through CellTiter GLO.
The compounds were further evaluated for activity against TKI-naïve primary AML patient samples expressing FLT3-ITD in short-term liquid culture growth inhibition assays (24).

[3] = test system: FLT3 phosphorylation in Ba/F3 cells stably expressing FLT3-ITD in human plasma; assay: Plasma inhibitory assay; format: cell-based; conditions: for inhibition of FLT3 in the presence of human plasma, in words: 120 minutes, same concentrations as comparators
Procedure: A pitfall of some prior FLT3 inhibitors has been poor pharmacokinetic profiles. The plasma inhibitory assay identifies one pharmacokinetic profile by evaluating the activity of drugs in the presence of human plasma proteins that can sequester inhibitors in clinical experience.
Plasma Inhibitory Assay was performed as previously described with modifications (40). Ba/F3 cells (7×10^6 cells) stably expressing FLT3-ITD were resuspended in 1 mL of RPMI 1640+10% FBS or human plasma from a healthy control. All samples were collected under the University of California, San Francisco institutional review board (IRB)-approved cell banking protocol (CC #112514). Informed consent was obtained in accordance with the Declaration of Helsinki. The appropriate amount of drug was added and incubated at 37° C. for 120 minutes. Following, cells were washed in PBS and lysed in HEPES lysis buffer supplemented with protease and phosphatase inhibitors and processed as previously described (40,41). Immunoblotting was performed using anti-phospho-FLT3 and anti-FLT3 antibody (Cell Signaling).

[4] = test system: panel of 468 kinases and kinase mutants; assay: KINOMEscan screening; format: binding; conditions: for number of kinases bound relative to gilteritinib: 20× the Molm14 IC50 concentration of each compound
[5] = test system: NCI-60 cell line panel (no FLT3 mutation); assay: NCI-60 cell line panel; format: cell-based, human; conditions: for cytotoxic activity in NCI-60 panel, in words: compound 1: 30 μM single dose, compound 2: 5-dose; for antiproliferative effects in NCI-60 panel, in words: higher concentrations
Procedure: FIG. 12. Activity of compound 1 against the NCI-60 cell line panel. Percentage growth of 1 in the 30 μM single dose experiment within the NCI-60 cell line panel. No cell line within the panel harbors a FLT3 mutation.
FIG. 13. Activity of compound 2 against the NCI-60 cell line panel. Growth inhibition curves of 2 in the 5-dose GIso experiment within the NCI-60 cell line panel. No cell line within the panel harbors a FLT3 mutation.
Myelosuppression represents a critical limitation of current FLT3 TKIs. To assess the selectivity profiles, KINOMEscan screening was performed for 1, 2, and gilteritinib at 20× the Molm14 IC50 concentration of each compound (FIG. 2A).

[6] = test system: normal donor bone marrow mononuclear cells (BM-MNC); assay: Colony forming unit assay of normal bone marrow; conditions: for impact on CFU-G counts/growth: equivalent multiples of Molm14 IC50, 14 days, three healthy donors
Procedure: FIG. 2. […] Normal bone marrow mononuclear cells (BM-MNC) were purchased from StemCell Technologies. 30,000 cells were plated in methylcellulose with increasing concentrations of either gilteritinib, 1, or 2. Blast forming unit-erythroid (BFU-E) and colony forming unit-granulocyte (CFU-G) were counted after 14 days incubation. Assay was completed in triplicate with three independent blood donors. Data shown is cumulated from all independent experiments. Error bars show one standard deviation and p values compared to control were calculated using a Student's t-test. NS indicates an insignificant p value, * indicates p value≤0.05, ** indicates p value≤0.01, *** indicates p value≤0.001, **** indicates p value≤0.0001
Bone marrow mononuclear cells (BM-MNC) of healthy donors (n=3) were purchased from StemCell Technologies (Vancouver, Canada). Cells were plated in a 35 mm dish in triplicate with methylcellulose medium at a concentration previously determined to form approximately 100 total colonies, usually 30,000 cells/mL and containing the appropriate amount of drug. Dishes were incubated for 14-15 days and visually assessed for erythrocyte burst-forming units and granulocyte-macrophage colony-forming units.

[7] = test system: FLT3 signaling in Molm14 subcutaneous xenografts; assay: In vivo target inhibition in Molm14 subcutaneous xenografts; parameters: species or system mice; conditions: for oral bioavailability and pharmacokinetic profile, in words: mice, oral gavage; for inhibition of target and downstream effectors at 4 hour and 8 hours: single dose by oral gavage, all doses, Western blot of tumors
From the text: FIG. 6. Assessment of in vivo target inhibition by compounds 1 and 2 in Molm14 subcutaneous xenografts. Western blot analysis of 1 and 2 in a Molm14 xenograft model.

Row | Structure (SMILES) | activity in cell viability assay (IC50, FIG. 1A/5B), in words [1] | activity in cell viability assay (IC50, FIG. 1A/5B), in words (Molm14 F691L cells) | activity against primary FLT3-ITD AML samples, in words [2] | impact of the presence of plasma on activity ([3]; human plasma vs RPMI 1640+10% FBS) | inhibition of FLT3 in the presence of human plasma, in words [3] | selectivity profile, in words ([4]; 20× the Molm14 IC50 concentration) | number of kinases bound relative to gilteritinib [4] | six kinases bound with greatest affinity ([4]; KINOMEscan analysis) | cytotoxic activity in NCI-60 panel, in words [5] | antiproliferative effects in NCI-60 panel, in words [5] | impact on BFU-E counts/growth [6] | impact on CFU-G counts/growth [6] | oral bioavailability and pharmacokinetic profile, in words [7] | inhibition of target and downstream effectors at 4 hour and 8 hours [7] | target inhibition at 24 hours ([7]; single oral dose, 2 mg/kg and 10 mg/kg) | target inhibition at 24 hours ([7]; single oral dose, 10 mg/kg) | kinase signaling at 24 hours ([7]; single oral dose, lower doses)
1 | CN(C)CCNc1ncc(F)c(-c2cnc3cc(-c4cnn(C)c4)ccn23)n1 [Compound 1] | activity comparable to quizartinib and superior to gilteritinib | retain activity | activity comparable to quizartinib and gilteritinib in all samples | almost no impact | more potent inhibition of FLT3 in the presence of plasma compared to quizartinib and gilteritinib | remarkable selectivity profile | bound to far fewer kinases than gilteritinib | FLT3, IRAK4, PHGK1, PHGK2, CDK7, TRKA | neither compound displayed any significant cytototoxic activity | antiproliferative effects were noted at higher concentrations | no significant impact on BFU-E growth at any concentration | less impact on CFU-G growth than gilteritinib | oral bioavailability and acceptable pharmacokinetic profiles | inhibition of target and downstream effectors at all doses | sufficient for retaining target inhibition for 24 hours |  | 
2 | CC(C)(C)c1cc(NC(=O)Cc2ccc(-c3cnc4cc(-c5cnn(CCN6CCOCC6)c5)ccc4n3)cc2)no1 [Compound 2, N-(5-(tert-butyl)isoxazol-3-yl)-2-(4-(6-(1-(2-morpholinoethyl)-1H-pyrazol-4-yl)quinoxalin-2-yl)phenyl) acetamide] | activity comparable to quizartinib and superior to gilteritinib | retain activity | most potent activity of all the compounds |  | more potent inhibition of FLT3 in the presence of plasma compared to quizartinib and gilteritinib |  | bound to far fewer kinases than gilteritinib |  | neither compound displayed any significant cytototoxic activity | antiproliferative effects were noted at higher concentrations | no significant impact on BFU-E growth at any concentration | less impact on CFU-G growth than gilteritinib | oral bioavailability and acceptable pharmacokinetic profiles | inhibition of target and downstream effectors at all doses |  | sustained target inhibition | kinase signaling was restored
